Experimental findings from ChEMBL document CHEMBL1159251, “A new polyether acid from a cold water marine sponge, a Phakellia species” (J Nat Prod, 1995) are described below.

Series [1] can be described thus: Cytotoxicity against african green monkey CV1 cells assessed as zone of diameter at 0.1 ug/ml. It counts as cell-based. To be noted: chlorocebus aethiops, cv-1.
Series [2] in a line: Cytotoxicity against BHK cells. The series is classed as cell-based, Mesocricetus auratus. To be noted: hamster.
Series [3] has as its system Vesicular stomatitis virus. The series can be described thus: Antiviral activity against VSV in BHK cells at 0.01 ug/ml by plaque reduction method. The series is classed as functional, organism-based.
Series [4] relates to Human alphaherpesvirus 1. The experiment in a line: Antiviral activity against HSV1 in african green monkey CV1 cells at 0.01 ug/ml by plaque reduction method. To be noted: CV-1. It counts as functional, organism-based. (Plaque reduction counts the foci of infection that form in a cell layer.)
Series [5] in a line: Cytotoxicity against african green monkey CV1 cells assessed as zone of diameter at 0.01 ug/ml. To be noted: chlorocebus aethiops, cv-1. The series is classed as cell-based.
Series [6] deals with L1210. The series can be described thus: Cytotoxicity against mouse L1210 cells. It counts as cell-based.
Series [7] deals with Human alphaherpesvirus 1. The experiment in a line: Antiviral activity against HSV1 in african green monkey CV1 cells at 1 ug/ml by plaque reduction method. It counts as functional, organism-based. To be noted: CV-1.
For series [8], the system named is Human alphaherpesvirus 1. The series can be described thus: Antiviral activity against HSV1 in african green monkey CV1 cells at 0.1 ug/ml by plaque reduction method. To be noted: CV-1. It counts as functional, organism-based.

Each structure is given as a SMILES string. Values after ≈ are worked out from the molar mass of the structure shown. Active and inactive are the calls of the source. The rule behind the calls is not given here.

Usually IC50 stands for the concentration that inhibits the measured activity by half.

With `C=C1[C@@H](O)[C@@H]2O[C@]3(CC[C@H](CC[C@@H](C)[C@@H]4CC(C)=C[C@@]5(O[C@H](C[C@@](C)(O)C(=O)O)CC[C@H]5O)O4)O3)CC[C@H]2O[C@@H]1[C@@H](O)C[C@H](C)[C@H]1O[C@@]2(CC[C@H]1C)OCCC[C@H]2C`, the “inhibition zone (IZ)” value in series [1] and in series [5] was 0 mm each time. The Activity entry in series [2] is “Toxic”. Also, in series [3], the outcome was Active. Also, the outcome in series [4] was inactive. Also, the IC50 in series [6] was 3 ng/mL (≈ 3.65 nM).
On to `C=C1[C@@H](O)[C@@H]2O[C@]3(CC[C@H](/C=C/[C@@H](C)[C@@H]4CC(C)=C[C@@]5(O[C@H](C[C@@](C)(O)C(=O)O)CC[C@H]5O)O4)O3)CC[C@H]2O[C@@H]1[C@@H](O)C[C@H](C)[C@H]1O[C@@]2(CCCCO2)CC[C@H]1C` [OKADAIC ACID], for which the “inhibition zone (IZ)” value in series [1] came out at 22 mm; in series [5] it was 0 mm. For the same compound, in series [6], half-maximal inhibition (IC50) was put at 5 ng/mL (≈ 6.21 nM).
`C=C1[C@@H](O)[C@@H]2O[C@]3(CC[C@H](/C=C/[C@@H](C)[C@@H]4CC(C)=C[C@@]5(O[C@H](C[C@@](C)(O)C(=O)O)CC[C@H]5O)O4)O3)CC[C@H]2O[C@@H]1[C@@H](O)C[C@H](C)[C@H]1O[C@@]2(CC[C@H]1C)OCCC[C@H]2C` [DINOPHYSISTOXIN 1]: the Activity entry in series [1] and in series [2] was “Toxic” throughout. Moreover, the result in series [7] and in series [8] was Active. Also, in series [4], the result was inactive. In addition, the “inhibition zone (IZ)” value in series [5] came out at 0 mm. Also, the IC50 in series [6] was 2 ng/mL (≈ 2.44 nM).
